# Laboratory results: US20210238136A1, “AZETIDINE DERIVATIVE, AND PRODRUG THEREOF” (DAIICHI SANKYO COMPANY, LIMITED, priority 2018, published 2021)
# What was measured:
# NZB/W F1 mice = assay: Survival of NZB/W F1 mice that naturally develop SLE-like symptoms and nephritis; format: in vivo, mouse (NZB/W F1); conditions: oral from the age of 12 weeks; Example 44 at 30, 100 mg/kg BID; MMF 60 mg/kg QD; Vehicle survival rate 35%
# Protocol: FIG. 4 is a graph showing the effect of the compound of Example 44 in NZB/W F1 mice that naturally develop SLE-like symptoms and nephritis. To NZB/W F1 mice, the compound of Example 44 was orally administered at 30, 100 mg/kg, BID, and MMF was orally administered at 60 mg/kg, QD, starting at the age of 12 weeks. The vertical axis indicates the survival rate and the horizontal axis indicates the period. Both of the Vehicle group and the compound of Example 44 administration group was at N=20, and the MMF administration group was at N=15. The surviving days was analyzed by the Kaplan-Meier method, and the group in which the p-value was 0.001 or less compared to the Vehicle group by the log rank test is shown by ***.
# Effect of Compound of Example 44 in NZB/W F1 Mice that Naturally Develop SLE-Like Symptoms and Nephritis
# To NZB/W F1 mice that naturally develop SLE-like symptoms and nephritis, test substance was forcibly orally administered (0.2 mL/mouse) twice daily with a feeding needle, starting at the age of 12 weeks. The compound of Example 44 was orally administered at 30, 100 mg/kg, BID, and MMF was orally administered at 60 mg/kg, QD. […] Mice were observed daily, and those that reached a dying state such as weight loss and dyspnea were euthanized, and the survival rate was evaluated. The number of survival days was analyzed by the Kaplan-Meier method and the log rank test was performed. […]
# mouse acute GVHD model = assay: Mouse acute GVHD model, IFN-γ concentration in plasma; format: in vivo, mouse (BDF1 host, C57BL/6N donor); conditions: for effective dose, suppression of IFN-γ in plasma: oral, twice daily from Day 0, plasma on Day 7, significant relative to the Vehicle group
# Protocol: FIG. 2 is a graph showing the effect of the compound of Example 89 in mouse acute GVHD models. The compound of Example 89 was orally administered at 1.5, 5, 15, or 50 mg/kg, BID. The vertical axis is the concentration of interferon gamma (sometimes abbreviated herein as IFN-γ or IFN-g) in blood on day 7 after elicitation in the model.
# Effect of Test Substance in Mouse Acute GVHD Model
# A mouse acute graft-versus-host disease (GVHD) model was generated in accordance with a previous report (Puliaev R et al. Differential requirement for IFN-gamma in CTL maturation in acute murine graft-versus-host disease. J Immunol. 173, 910-9 (2004)). Splenocytes were prepared from euthanized donor mice (C57BL/6N), suspended in PBS without hemolysis of erythrocytes, and administered to host mice, BDF1 mice, from the tail vein (the number of transfer cells was adjusted to be 7 to 8×10^7 cells/0.2 mL/mouse in every test, and matched between individuals within the same test). In the Normal group, 0.2 mL of PBS was administered in place of the cells. The test substance was crushed in an agate mortar, and then suspended in a 0.5% hydroxypropyl cellulose (HPC) solution to prepare a dosage solution. In the Vehicle group, 0.5% HPC was used as a dosage solution. To the host mice, the dosage solution was forcibly orally administered (0.2 mL/mouse) twice daily with a feeding needle from the morning of Day 0 (cell transfer) to the end of the experiment. The tail vein was cut without anesthesia on Day 7 and a small amount of blood was collected with a hematocrit tube (EDTA). Plasma was collected by centrifugation and IFN-γ concentration in plasma was measured with an αLISA kit (Mouse IFN-γ alphaLISA, PerkinElimer, AL501C). […] For the difference between the Normal group and the Vehicle group, comparison between two groups was performed by Student's t-test. The difference between the Vehicle group and the test substance administration group was analyzed by a parametric multiple-comparison test, Dunnett test.
# mouse chronic GVH model = assay: Kidney disorder in mouse chronic GVH model, urine protein/creatinine ratio; format: in vivo, mouse (BDF1 host, DBA2 donor); conditions: for minimum effective dose / effective dose, urine protein/creatinine ratio: oral, twice daily from Day 4, urine on Day 32, p-value of 0.05 or less relative to the Vehicle group
# Protocol: FIG. 3 is a box plot graph showing the effect of the compound of Example 89 on renal disorder in mouse chronic GVH models. The compound of Example 89 was orally administered at 1.5, 5, 15, or 50 mg/kg, BID, and MMF was orally administered at 30 mg/kg, BID. […] The boxes in the graph represent box plots of the median and the quartile range for each group at N=12. The plots show the values of each individual. Both between the non-elicitation group (Normal group) and the Vehicle group, and between the Vehicle group and the MMF group were compared by the Wilcoxon test (non-parametric, two-group comparison). # means that the p-value is 0.05 or less, and $$ means that the p-value is 0.01 or less, respectively. The Vehicle group and the compound group of Example 89 were analyzed by the Shirley-Williams test (non-parametric, multiple comparisons with dose response). The groups in which the p-value is 0.01 or less and 0.001 or less are shown by ** and ***, respectively.
# Effect of Test Substance on Kidney Disorder in Mouse Chronic GVH Model
# A mouse chronic graft-versus-host (GVH) model was generated in accordance with a previous report (Via CS. Advances in lupus stemming from the parent-into-F1 model. Trends Immunol. 31, 236-45 (2010)). Splenocytes were prepared from euthanized donor mice (DBA2 mice), suspended in PBS without hemolysis of erythrocytes, and administered to host mice, BDF1 mice, from tail veins (1×10^8 cells/0.2 mL/mouse) at Day 0 and Day 4, twice. In the Normal group, 0.2 mL of PBS was administered in place of the cells. The test substance was crushed in an agate mortar, and then suspended in a 0.5% hydroxypropyl cellulose (HPC) solution to prepare a dosage solution. In the Vehicle group, 0.5% HPC was used as a dosage solution. To the host mice, the dosage solution was forcibly orally administered (0.2 mL/mouse) twice daily with a feeding needle from Day 4 (second cell transfer) to the end of the experiment. Urine was collected on Day 32 under free diet with a metabolic cage. Urine protein concentration was measured with a urine protein test kit (total protein kit microTP test wako, FUJIFILM Wako Pure Chemical Corporation, pyrogallol red method), and urine creatinine concentration was measured using a creatinine test kit (LabAssay™ creatinine, FUJIFILM Wako Pure Chemical Corporation, Jaffe method), and the ratio of urine protein to creatinine was calculated for each individual. […] For the difference between the Normal group and the Vehicle group, the Wilcoxon test (non-parametric, comparison between two groups) was performed, and for the difference between the Vehicle group and the test substance administration group, the analysis was performed by the Shirley-Williams test (non-parametric, multiple comparison with dose response).
SMILES,survival until the end of the experiment (age of 44 weeks) (NZB/W F1 mice),"effective dose, suppression of IFN-γ in plasma (mouse acute GVHD model)","effect on IFN-γ in plasma (mouse acute GVHD model; oral 1.5, 5, 15, or 50 mg/kg BID, Day 7)","effect on urine protein/creatinine ratio (mouse chronic GVH model; oral 1.5, 5, 15, or 50 mg/kg BID, Day 32)","minimum effective dose / effective dose, urine protein/creatinine ratio (mouse chronic GVH model)"
"CC(OC(=O)N[C@@H](Cc1cccc(S(=O)(=O)N2CC(Oc3ccc(F)cc3)(c3ccccc3)C2)c1)C(=O)O)OC(=O)C(C)(C)C (stereo partly drawn) [Example 44, (2S)-3-(3-((3-(4-Fluorophenoxy)-3-phenylazetidin-1-yl)sulfonyl)phenyl)-2-(((1-(pivaloyloxy)ethoxy)carbonyl)amino)propanoic acid]",no death was observed,"≥ 10 mg/kg, BID",–,–,–
"CC(=O)O[C@@H](C)OC(=O)N[C@@H](Cc1cccc(S(=O)(=O)N2CC(Oc3cccc(F)c3)(c3ccccc3)C2)c1)C(=O)O [Example 89, (S)-2-((((R)-1-Acetoxyethoxy)carbonyl)amino)-3-(3-((3-(3-fluorophenoxy)-3-phenylazetidin-1-yl)sulfonyl)phenyl)propanoic acid]",–,"≥ 1.5 mg/kg, BID",inhibited IFN-γ in plasma in a dose-dependent manner,suppressed the urine protein/creatinine ratio in a dose-dependent manner,"15 mg/kg, BID"
C[C@H](OC(=O)N[C@@H](Cc1cccc(S(=O)(=O)N2CC(Oc3cccc(F)c3)(c3ccccc3)C2)c1)C(=O)O)OC(=O)C(C)(C)C [Example 97],–,–,–,–,"15 mg/kg, BID"
"CC(C)C(=O)O[C@@H](C)OC(=O)N[C@@H](Cc1cccc(S(=O)(=O)N2CC(Oc3ccc(F)cc3)(c3ccccc3)C2)c1)C(=O)O [Example 104, (S)-3-(3-((3-(4-Fluorophenoxy)-3-phenylazetidin-1-yl)sulfonyl)phenyl)-2-((((R)-1-(isobutyryloxy)ethoxy)carbonyl)amino)propanoic acid]",–,"≥ 15 mg/kg, BID",–,–,"15 mg/kg, BID"
"COc1c(C)c2c(c(O)c1C/C=C(\C)CCC(=O)OCCN1CCOCC1)C(=O)OC2 [MMF, mycophenolate mofetil, reference compound]",no death was observed,–,–,–,–
